Data published in paper PMC3495945, “Org 214007-0: A Novel Non-Steroidal Selective Glucocorticoid Receptor Modulator with Full Anti-Inflammatory Properties and Improved Therapeutic Index” (PLoS ONE, 2012).

What was measured:
[1] = system: primary human whole blood cells; test: Human whole blood LPS-induced cytokine release; assay type: cell-based; details: for IC50: Whole blood cell, LPS, 24 hours, read-out: IC50, LPS-induced TNFα release; for Max. eff., LPS-induced TNFα repression: prednisolone = 100%
Description: Hereafter, supernatant was carefully collected and tested at the most optimal dilution (predetermined by a titration study on control samples) in a human TNFα-specific ELISA (for the LPS stimulated samples) or in a human IL-5-specific or human G-CSF-specific ELISA (for the PMA/anti-CD28 stimulated samples) (Duoset, R&D systems USA).

[2] = system: coronary artery smooth muscle cells; test: BioMAP assay CASM3C; assay type: cell-based, human; details: 1 μM, prednisolone = 100%
Protocol: Next, effects of Org 214007-0 on the cytokine release by primary human whole blood cells treated with either LPS or anti-CD28/PMA were tested. […] These assays make use of different types of primary human cells, in this case coronary artery smooth muscle cells and neonatal foreskin fibroblasts, in an inflammatory environment, [28]. […] When all repressed and induced proteins are taken into account, a relative TI value for Org 214007-0 could be deduced of 1.7 in coronary artery smooth muscle cells and of 2.2 in neonatal foreskin fiboblasts.

LPS-induced TNFα release = test: LPS-induced TNFα acute inflammation mouse model; assay type: in vivo; details: oral; for ED50: Mus musculus, 1 hour before LPS i.p., Balb/c mice, read-out: ED50, inhibition of LPS-induced serum TNFα
Protocol: For both the LPS-induced TNFα as well as the anti-CD3 induced IL-2 model, female Balb/c mice of 8–12 week old were used. Mice were treated orally with 0.2 ml compound or vehicle (water/mannitol (5%) with 5% DMSO/5% chremophore for the LPS model or with 0.5% gelatine for the anti-CD3 model). One hour after oral treatment animals were challenged i.p. with 0.2 ml of either 20 μg/mouse LPS (Sigma, E. coli serotype 055:B5) or 5 µg/mouse hamster anti-CD3 monoclonal (BD Biosciences Pharmingen, art. nr. 553057, clone 145-2C11). Ninety minutes after LPS injection or 3 hours after anti-CD3 challenge, blood samples were collected and serum levels of TNFα or IL-2 were determined via specific ELISAs (BD Biosciences Pharmingen, San Diego, CA, USA). In the experiment that included treatment with RU486 to block GR, mice were dosed subcutaneously with 50 mg/kg RU486 30 minutes before the oral compound dosing. ED50 and % efficacy (maximal percentage inhibition of TNFα or IL-2 release) are determined using a 3 parameter sigmoidal curve calculation. Statistical analysis of the results was performed using an one-way ANOVA (log) test.

GR = target: T1, GR (Homo sapiens, UniProt P04150); test: U2OS GR.G9 IFNγ/TNFα-induced MCP-1 release (repression); assay type: cell-based; design: expressed in transfected cells; host or cells: U2OS (U2OS GR.G9); details: for Max. eff., repression of MCP-1 release: IFNγ/TNFα, relative to prednisolone (100%)
T1 sequence (P04150 1-777): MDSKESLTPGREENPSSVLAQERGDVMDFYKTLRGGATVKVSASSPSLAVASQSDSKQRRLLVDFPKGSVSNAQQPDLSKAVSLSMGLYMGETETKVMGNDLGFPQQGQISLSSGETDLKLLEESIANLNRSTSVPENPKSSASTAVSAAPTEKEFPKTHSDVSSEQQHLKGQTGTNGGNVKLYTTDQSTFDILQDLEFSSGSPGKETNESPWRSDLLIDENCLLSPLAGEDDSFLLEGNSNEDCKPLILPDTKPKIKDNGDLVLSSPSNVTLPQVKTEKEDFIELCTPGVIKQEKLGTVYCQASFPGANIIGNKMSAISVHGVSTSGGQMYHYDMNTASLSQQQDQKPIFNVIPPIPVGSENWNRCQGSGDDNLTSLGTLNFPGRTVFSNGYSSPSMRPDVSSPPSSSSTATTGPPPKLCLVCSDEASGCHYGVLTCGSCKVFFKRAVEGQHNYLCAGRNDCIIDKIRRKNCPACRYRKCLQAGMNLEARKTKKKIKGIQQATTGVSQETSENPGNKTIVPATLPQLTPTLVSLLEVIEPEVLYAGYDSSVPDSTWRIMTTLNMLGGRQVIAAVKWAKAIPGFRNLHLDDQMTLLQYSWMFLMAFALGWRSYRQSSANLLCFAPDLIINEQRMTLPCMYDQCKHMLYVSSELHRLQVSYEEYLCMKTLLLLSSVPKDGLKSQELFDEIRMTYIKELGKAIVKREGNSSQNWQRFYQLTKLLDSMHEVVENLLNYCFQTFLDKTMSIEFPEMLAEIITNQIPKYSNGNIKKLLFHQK
Protocol: To determine the repressive activity of GR ligands, cell line U2OS GR.G9, the human osteoblastic cell line U2OS, stably transfected with human GR, was used. Cells (10^4 cells/well) were incubated in 384-wells plates, in the presence of 50 ng/ml TNFα (R&D systems)/100 ng/ml IFNγ (Peprotech) and compound, for 18 hours. Hereafter, a mixture of two different antibodies to hMCP-1, one Eu-labeled and one APC-labeled, were added. One hour later the time-resolved fluorometric resonance energy transfer (TR-FRET) signal was measured. (for more detailed information see Supportive Information) (SI text).
U2OS GR.G9 cells (10^4 cells/well) in Dulbecco's MEM / HAM F12 medium supplemented with 5% charcoal treated bovine calf serum (Hyclone) (v/v) and Penicillin (10 U/ml) -Streptomycin (10 μg/ml) were incubated in 384-wells plates, in the presence of 50 ng/ml TNFα (R&D systems) / 100 ng/ml IFNγ (Peprotech) and compound, for 18 hours in a humidified atmosphere at 37°C under 6.5% CO2. Hereafter, a mixture of 2.2 nM anti-hMCP-1 labeled with fluorescent donor Europium (Eu) and 16.6 nM anti-hMCP-1 labeled with fluorescent acceptor Allophycocyanin (APC) was added to each well and left at roomtemperature for 1 hour. Finally, the time-resolved fluorometric resonance energy transfer (TR-FRET) signal was measured with the Victor^2TM V, 1420 Multilabel Counter (Wallac). Using 4-parameter curve fitting, IC50 values for the compounds were determined.

IC50 (GR; IFNγ (100 ng/ml)/TNFα (50 ng/ml), 18 hours)	Max. eff., repression of MCP-1 release (GR; listed as Org)	Compound	IC50 [1]	Max. eff., LPS-induced TNFα repression [1]	Max. eff., induction of serum amyloid A (SAA) [2]	ED50 (LPS-induced TNFα release)	Max. eff., repression of MCP-1 release (GR)	maximal efficacy, inhibition of LPS-induced TNFα release (LPS-induced TNFα release)
–	–	C[C@]12C=CC(=O)C=C1CC[C@@H]1[C@@H]2[C@@H](O)C[C@@]2(C)[C@H]1CC[C@]2(O)C(=O)CO [prednisolone, reference compound]	27 nM	100%	100%	1 mg/kg	100 (±9.6) %	–
0.36 nM	81 (±16) %	Cc1nnsc1C(=O)N[C@H]1CCN2c3ccc(C#N)cc3[C@@H](C)c3ccccc3[C@@H]2C1 [Org 214007-0]	50 nM	68 (±8.7) %	58%	0.5 mg/kg	81%	90%
